Broadly, the melting point is the temperature, or range, at which the solid turns liquid.

Turning to `COc1ccccc1-c1cccc(-n2cnc3cc(C4=NCCN4)ccc32)c1`, the melting point was in the range of 221 to 224 °C.
Turning to `CC(C(=O)O)c1cccc(C2(c3ccccc3)OCCO2)c1` (stereo not drawn), the melting point was in the range of 91 to 94 °C.
The molecule `COc1cc(OC)c2cc(-c3ccc(F)cc3)oc2c1` registered a melting point of 142 to 143 °C.
`Cc1[nH]cc(C(N)=O)c(=O)c1I` returned a melting point of 296 to 298 °C.
As for `CS(=O)(=O)c1ccc2cc(C(=O)O)ccc2c1`, the melting point was 301 to 304 °C.
In the case of `CSc1c(CC(=O)O)ccc2c3ccccc3n(Cc3ccc(F)cc3)c12` it was 156 to 157 °C.
For `CCNC(=O)NCCCN1C(=Nc2ccc3c(c2)OCO3)CSC1c1ccccc1OC` (stereo not drawn), the melting point lay in the range of 134 to 136 °C.
In the case of `CNC(=S)NCCCSc1ncccn1`, the melting point fell in the range of 120 to 121 °C.
`Cn1nc(-c2ccccc2)c2cccc(NS(C)(=O)=O)c2c1=O` had a melting point of 217 to 218 °C.
With `CCCCCCCCCCCCCCCC(=O)OCC(COC(=O)CCCCCCCCCCCCCCC)OCn1cnc2c(=O)[nH]c(N)nc21` the figure was 150 to 154 °C.
For the molecule `c1ccc(C(CCOc2ccc(Cc3nnn[nH]3)cc2)(c2ccccc2)c2ccccc2)cc1`, the melting point fell in the range of 187 to 189 °C.
With `Nc1ncnc2c1ncn2C[C@@H]1O[C@H](CO)[C@@H](O)[C@@H]1O` the figure was 107 to 109 °C; with `COc1nc(N2CCN(C(=O)c3ccccc3C(F)(F)F)CC2)ccc1C(=O)NCCC1CC1`, 49 to 51 °C.
Consider `O=C1Nc2ccccc2N(C(=O)CN2CCCCC2CN2CCOCC2)c2ccccc21` (stereo not drawn), for which the melting point was in the range of 194 to 195 °C.
For `CNc1cccc(-c2ccc3c(C(N)=O)nn(-c4ccc(S(N)(=O)=O)cc4)c3c2)c1`, the melting point was in the range of 159 to 160 °C.
In the case of `CC1Oc2ccc(CN3CCN(c4nc5c(c(=O)n(C)c(=O)n5C)n4C)CC3)cc2NC1=O` (stereo not drawn) it was 130 to 138 °C; in that of `NS(=O)(=O)c1ncccc1S`, 102 to 104 °C; in that of `CCOC(=O)NNc1cc(C)c(-c2ccc(Br)cc2)nn1`, 178 to 179 °C.
In turn, `O=C(O)c1cn2c(-c3ccccc3)ncc2c2ccccc12` registered a melting point of 187 to 190 °C.
In the case of `CCCNc1ccc(C#CCCN2CC=C(c3ccccc3)CC2)nc1` it was 138 to 139 °C; in that of `COC(=O)[C@@H](NC(=O)[C@H](Cc1ccccc1)NC(=O)c1ccccc1)C(C)C`, 160 to 163 °C; in that of `CC1C(=O)c2ccccc2C1NCCc1ccccc1` (stereo not drawn), 82 to 83 °C.
In the case of `CCOC(=O)Cc1ccc(NCCNC(=O)C2Cc3ccccc3N2S(=O)(=O)c2ccc(-c3cc(C(F)(F)F)ccc3Cl)cc2)cc1` (stereo not drawn) it was 55 to 63 °C; in that of `COc1ccccc1Cc1n[nH]c2c1c(=O)n(-c1ccccc1)c1ncccc21`, 276 to 277 °C; in that of `CC(N)C(=O)NC(Cc1ccccc1)C(=O)NCC(=O)Oc1c(Cl)c(Cl)c(Cl)c(Cl)c1Cl` (stereo not drawn), 180 to 183 °C.
For `CCC1OCc2c1cnc(C)c2O` (stereo not drawn), the melting point worked out at 172 °C.
Take `CC(C)[C@@H]1CC[C@@H](C)C[C@H]1OC(=O)NCCC(C)n1cnc2c(N)nc3ccccc3c21` (stereo partly drawn): the melting point was 84 to 86 °C.
In turn, `Cc1nccn1C[Si](C)(C)Cc1ccc(F)cc1` returned a melting point of 60 to 62 °C.
Molecule `COc1ccc(N2CCOCC2)c2sc(NC(=O)N(C)[C@H]3CC[C@@H](OC)CC3)nc12` yielded a melting point of 198 to 200 °C.
Turning to `COC(=O)c1c(C(=O)OC)c(-c2ccc(OC)cc2)c2c3c(ccc2c1OC)OCO3`, the melting point is 166 to 167 °C.
In the case of `COc1cc(NC(=O)Nc2ccccc2)cc(OC)n1` it was 190 to 192 °C; in that of `CCOC(=O)Cn1nc(-c2cc(Cl)ccc2O)nc1-c1cc(Cl)ccc1O`, 195 to 200 °C.
With `COCCN1CCc2ccc(Nc3ncc(Cl)c(N[C@@H]4CCCC[C@H]4NC(=O)C(F)(F)F)n3)cc2CC1` the figure was 180 to 182 °C; with `COC(=O)c1cc2cc(C(=O)c3cccc(C(C)C#N)c3)sc2s1` (stereo not drawn), 163 °C; with `Cc1nc2c(O)c(C(=O)[C@H](O)[C@@H](O)c3ccccc3)ccc2n1C1CC1`, 120 °C.
In turn, `C[Si](C)(C)C#Cc1cc(Cl)cnc1N` displayed a melting point of 108 °C.
The molecule `Cc1cccc(/C=C/c2nc(COc3ccc(CCCCc4c[nH]c(CC(O)CO)n4)cc3)co2)c1` (stereo not drawn) gave a melting point of 102 to 104 °C.
`CNC1([C@@H]2CCN(c3c(F)cc4c(=O)c(C(=O)O)cn([C@@H]5C[C@@H]5F)c4c3C)C2)CC1` registered a melting point of 211 to 212 °C.
Molecule `O=C(NC(CO)CO)c1ccccc1-c1ccc(C(F)(F)F)cc1` showed a melting point of 141 to 143 °C.
Molecule `O=S1(=O)CCC=C(O)c2cc(Cl)ccc21` yielded a melting point of 166 to 168 °C.
In the case of `CCCCCCCC(=O)N(C)Cc1cccc(-c2ccc(C=CC(=O)O)cc2)c1`, the melting point was in the range of 124 to 125 °C.
Molecule `CC(C)n1cc(C(=O)NCc2ccc(Cl)cc2)c(=O)c2cc(CCCO)sc21` showed a melting point of 84 to 92 °C.
`N#CNc1cc(Cl)ccc1N1CCOCC1` gave a melting point of 305 to 308 °C.
`Nc1c(-c2cc(Cl)ccc2O)c2c(C(F)(F)F)cc(C(F)(F)F)cc2[nH]c1=O` displayed a melting point of 230 to 233 °C.
For the molecule `CCOCc1cc2cc(Br)ccc2oc1=Nc1ccc(F)cc1`, the melting point is 153 to 154 °C.
Consider `COc1ccc(-c2cn(O)c(=S)[nH]2)cc1`, for which the melting point stood at 160 °C.
With `CN1CCCC1=NC(=O)Nc1cc(Cl)ccc1Cl` the figure was 148 to 150 °C.
`Cc1nc(-c2ccc(-c3cnc4[nH]c(=O)n(CC5CCCCC5)c4n3)cc2)n[nH]1`: the melting point lay in the range of 315 to 318 °C.
The molecule `O=S1(=O)c2cccc3cccc(c23)N1CCN1CCC(CC2C=Cc3ccccc32)CC1` (stereo not drawn) registered a melting point of 166 °C.
With `CCNC(=S)N1CCc2[nH]cnc2C1` the figure was 185 °C.
In the case of `CCCCOc1ccc2nc(C(=O)NCC(=O)O)c(O)cc2c1`, the melting point fell in the range of 180 to 182 °C.
With `COc1ccc2[nH]c(=O)n(S(=O)(=O)c3ccc(Cl)cc3)c(=O)c2c1`, the melting point was 192 to 194 °C.
In the case of `COc1cc(Nc2c(C#N)cnc3cc4cc(OC)c(OCCN5CCOCC5)cc4cc23)c(Cl)cc1C` it was 240 to 241 °C; in that of `N#CCC(=O)NCc1ccc(Cl)c(Cl)c1`, 144 to 145 °C.
`COc1cc(C(=O)C#CCOC(C)=O)cc(OC)c1OC` had a melting point of 104 to 105 °C.
As for `O=C(c1ccccc1)n1c(=O)c(C(F)(F)F)cn(C2CC(O)C(COCc3ccc(Cl)cc3)O2)c1=O` (stereo not drawn), the melting point was in the range of 159 to 160 °C.
Turning to `O=Cc1c(C2CC2)nc2ccccc2c1-c1ccc(F)cc1`, the melting point was found to be 152 °C.
Turning to `Cc1ccc(Sc2c(SCc3ccccc3)cc(C(=O)O)cc2S(=O)(=O)Cl)cc1`, the melting point lay within 188 to 190 °C.
In turn, `N#Cc1cccc(-c2nc(-c3cccnc3)no2)n1` registered a melting point of 201 to 203 °C.
Molecule `c1ccc(N=C(N=C(Nc2ccccc2)c2ccccc2)N2CCCC2)cc1` showed a melting point of 246 to 247 °C.
On to `Nc1ccc(CS(=O)(=O)Nc2ccccc2)cc1`, for which the melting point fell in the range of 180 to 182 °C.
`CCOC(=O)c1nn(C)cc1-c1ccccc1`: the melting point is 145 °C.
In the case of `Nc1nc2c(s1)CCN(CC=Cc1ccsc1)CC2`, the melting point lay within 128 to 132 °C.

For the origin of these results see a melting point compilation (Tetko et al.; mined from patent text by program, amines drawn as free bases though some values may be those of a salt).
